Source: PubChem BioAssay (NCI)
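Cells were grown in 96-well plates and exposed to each compound for 48 hours at five concentrations; endpoints were interpolated linearly between bracketing concentrations, or set to the highest concentration if not reached. GI50 is the concentration that inhibits growth by half. Definition used: TGI = concentration required for complete inhibition of growth.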

Columns and labels:
Test in all cases: NCI-60 cell line screen, 48 h
[1] = system: LOX IMVI melanoma
[2] = system: SK-MEL-28 melanoma
[3] = system: NCI/ADR-RES ovarian
[4] = system: NCI-H460 lung
[5] = system: ACHN renal
[6] = system: SW-620 colon
[7] = system: UO-31 renal
[8] = system: OVCAR-4 ovarian
[9] = system: SK-OV-3 ovarian
[10] = system: OVCAR-8 ovarian

SMILES	GI50 [1]	TGI [1]	GI50 [2]	TGI [2]	GI50 [3]	TGI [3]	GI50 [4]	TGI [4]	GI50 [5]	TGI [5]	GI50 [6]	TGI [6]	GI50 [7]	TGI [7]	GI50 [8]	TGI [8]	GI50 [9]	TGI [9]	GI50 [10]	TGI [10]
O=C(Nc1ccc(S(=O)(=O)NC2CCCCCC2)cc1)C(c1ccccc1)S(=O)(=O)c1ccc(F)cc1 (centres undefined)	112 nM	0.422 µM	0.245 µM	1.02 µM	1240 nM	4.66 µM	36.7 nM	1.1 µM	153 nM	0.491 µM	84 nM	1.98 µM	202 nM	3.52 µM	444 nM	4.16 µM	335 nM	4.03 µM	702 nM	4.68 µM
CC(=O)N[C@@H](Cc1ccc(OP(=O)(O)O)cc1)C(=O)N[C@H]1CCC(=O)N2CCC[C@@H](C(=O)NCc3ccc(O)cc3)N2C1=O	> 25000 nM	> 25 µM	> 25 µM	> 25 µM	> 25000 nM	> 25 µM	> 25000 nM	> 25 µM	> 25000 nM	> 25 µM	> 25000 nM	> 25 µM	24200 nM	> 25 µM	> 25000 nM	> 25 µM	> 25000 nM	> 25 µM	> 25000 nM	> 25 µM
Cc1c(N2C(=O)/C(=C\c3ccc(N(C)C)cc3)N=C2c2ccccc2)c(=O)n(-c2ccccc2)n1C	> 94400 nM	> 100 µM	> 100 µM	> 100 µM	99500 nM	> 100 µM	62900 nM	> 100 µM	> 100000 nM	> 100 µM	> 100000 nM	> 100 µM	40600 nM	> 100 µM	39900 nM	> 100 µM	> 100000 nM	> 100 µM	83900 nM	> 100 µM
O=C1c2cccc3cc([N+](=O)[O-])cc(c23)C(=O)N1O		> 100 µM		> 100 µM		> 100 µM		> 100 µM		> 100 µM		> 100 µM		> 100 µM		> 100 µM		> 100 µM		> 100 µM
CCN1C(=O)N(CC)C2C1NN=c1s/c(=C\c3ccccc3)c(=O)n12 (centres undefined)	194 nM	> 100 µM	> 49.1 µM	> 100 µM	79.9 nM	> 100 µM	210 nM	> 100 µM	199 nM	> 100 µM	80.8 nM	> 100 µM	490 nM	> 100 µM	869 nM	> 100 µM	311 nM	> 100 µM	426 nM	> 100 µM
COc1cc(C2C(C#N)=C(N)Oc3cc4c(cc32)OCO4)cc2c1OCO2 (centres undefined)	1000 nM	> 100 µM	1.57 µM	> 100 µM	103 nM	0.553 µM	340 nM	26.2 µM	2300 nM	> 100 µM	276 nM	> 100 µM	653 nM	> 100 µM	931 nM	> 100 µM	439 nM		466 nM	> 100 µM
C[C@@H](Oc1cc(-c2cnn(C3CC4(CCCNC4)C3)c2)cnc1N)c1c(Cl)ccc(F)c1Cl (some centres undefined)	1170 nM	2.5 µM	1.54 µM	3.03 µM	2250 nM	5.59 µM	826 nM	2.53 µM	1570 nM	4.49 µM	597 nM	2.36 µM	1760 nM	3.9 µM	1850 nM	5.56 µM	2610 nM	6.96 µM	2060 nM	5.93 µM
Cc1cccnc1CNC1CC(NCc2ncccc2C)CC(NCc2ncccc2C)C1 (centres undefined)	1920 nM	3.96 µM	3.17 µM	12.4 µM	19300 nM	> 100 µM	2410 nM	6.03 µM	3220 nM	11.2 µM	2040 nM	5.8 µM	4850 nM	22.5 µM	2880 nM	11.9 µM	1980 nM	3.73 µM	2200 nM	4.87 µM
CCN(CC)c1ccc2nc3c4ccccc4c(=NC(=O)c4ccccc4-c4c5ccc(N(CC)CC)cc5[o+]c5cc(N(CC)CC)ccc45)cc-3oc2c1	1690 nM	4.49 µM	5.06 µM	12.4 µM	2190 nM	10.6 µM	2290 nM	10.1 µM	3970 nM	13.7 µM	2540 nM	> 22.5 µM	1490 nM	15 µM	1250 nM	2.67 µM	12300 nM	26.6 µM	2230 nM	12.2 µM
CC(C)CNc1nc(N=[N+]=[N-])nc(NCC(C)C)n1	> 10000 nM	> 10 µM	> 10 µM	> 10 µM	> 10000 nM	> 10 µM	> 10000 nM	> 10 µM	> 10000 nM	> 10 µM	> 10000 nM	> 10 µM	> 10000 nM	> 10 µM	> 10000 nM	> 10 µM	> 10000 nM	> 10 µM	> 10000 nM	> 10 µM
Nc1cccc2nsnc12		> 100 µM		> 100 µM		> 100 µM		> 100 µM		> 100 µM		> 100 µM		> 100 µM		> 100 µM		> 100 µM		> 100 µM
Cc1cc2c(C(C)C)c(O)c(O)c(C=O)c2c(O)c1-c1c(C)cc2c(C(C)C)c(O)c(O)c(C=O)c2c1O (tested in a mixture with another compound)	1160 nM	2.54 µM	1.64 µM	3.64 µM	825 nM	2.56 µM	484 nM	1.87 µM	545 nM	2.21 µM	806 nM	2.33 µM	1640 nM	4.56 µM	1450 nM	9.99 µM	1780 nM	9.33 µM	1180 nM	3.49 µM
N#CC[C@H](C1CCCC1)n1cc(-c2ncnc3[nH]ccc23)cn1	20900 nM	> 100 µM	31.8 µM	> 100 µM	19400 nM	> 100 µM	14400 nM	> 100 µM	23300 nM	> 100 µM	12500 nM	> 96.6 µM	4530 nM	82 µM	20400 nM	> 79.1 µM	24700 nM	> 88 µM	30300 nM	> 100 µM
